Experimental data published in patent publication US11578087B2, “Oxaborole esters and uses thereof” (priority 2016, dated 2023).
pIC50: −log10 of the molar value.

Tests used:
[1] = system: T. cruzi amastigote (Td Tomato-modified) in Vero cells; assay: In vitro IC50 measurement of T. cruzi amastigote killing using Td Tomato-modified T. cruzi; assay type: cell-based; details: Trypanosoma cruzi, 72 h, fluorescence, read-out: IC50: I Org. amastigote Growth T. cruzi 3 d
Description: Example 254. In Vitro IC50 Measurement of T. cruzi Amastigote Killing Using Td Tomato-Modified T. cruzi
The T. cruzi parasites used in this assay were genetically modified to express Td Tomato fluorescent protein. Vero cells (African green monkey kidney epithelial cells) were harvested from continuous cultures using trypsin and added to the inner 60 wells of 96-well Greiner Bio One plates (plate catalog #655090) at 200 ul/well of […]. Cells were allowed to adhere for 1 h before infection with T. cruzi. T. cruzi for infection were harvested from previously-infected Vero cells, washed, pelleted and resuspended at 5×10^6/mL. 50 uL of parasites were added to each well containing Vero cells. Compounds were prepared from 5 mM stock concentrations in DMSO to final concentrations in wells ranging from 5 uM to 5 nM. Wells were provided for negative controls, lacking compounds. Plates were placed into a 37° C. incubator for 20 min, then a “Day 0” reading was taken on a Synergy H4 plate reader to record initial fluorescence levels, at 544 (excitation) and 612 nm (emission). 96-well plates were placed in Tupperware containers with wet paper towels and incubated at 37° C. incubator for 72 h. After 72 h plates were reread (Day 3 reading) and data analyzed using Excel and/or Graphpad software. Day 0 fluorescence was subtracted from Day 3 to remove input parasite fluorescence. Growth curves are generated and 50% and 90% inhibitory concentrations are determined by nonlinear regression analysis.

[2] = system: IL3000 T. congolense (drug sensitive) strain; assay: In vitro Alamar Blue 72 h drug sensitivity assay for T. congolense; assay type: cell-based, Trypanosoma congolense; details: Trypanosoma congolense, 72 h, bloodstream form, 69 h + 3 h Resazurin, 34° C., read-out: IC50: I Org. Growth T. congolense 3 d
Description: Example 252. In Vitro Alamar Blue 72 h Drug Sensitivity Assay for T. congolense
Compounds were tested in vitro for chemotherapeutic potency against the IL3000 T. congolense (drug sensitive) strain, using the Alamar Blue assay with several modifications. Test compounds were prepared as 10 mg/mL DMSO stocks for each assay run. Compounds were assayed in at least three separate, independent test runs and an 11-point dilution curve was used to determine the IC50 values. Bloodstream form trypanosomes were supported in HMI media containing 20% bovine serum and were incubated with test compounds for 69 h at 34° C. in a humidified atmosphere containing 5% CO2. Thereafter, 10 μL of Resazurin dye (12.5 mg in 100 mL of phosphate buffered saline, Sigma-Aldrich, Buchs, Switzerland) were added for an additional 3 h. Plates were then read using a fluorescent plate reader (Spectramax, Gemini XS, Bucher Biotec, Basel, Switzerland) using an excitation wavelength of 536 nm and an emission wavelength of 588 nm. Data points were averaged to generate sigmoidal dose-response curves and IC50 values were determined using Softmax Pro 5.2 software.

SMILES | pIC50 [1] | pIC50 [2]
Cc1c(C(=O)N[C@H](C(=O)OCc2cccc(C(F)(F)F)c2)C(C)C)ccc2c1B(O)OC2 [Example 6-046, 3-Trifluoromethylbenzyl (1-hydroxy-7-methyl-1,3-dihydrobenzo[c][1,2]oxaborole-6-carbonyl)-L-valinate] | ≥ 7.70 | > 9.30
Cc1c(C(=O)N[C@H](C(=O)OCc2cccc(N3CCOCC3)n2)C(C)C)ccc2c1B(O)OC2 [Example 6-197, (6-morpholinopyridin-2-yl)methyl (1-hydroxy-7-methyl-1,3-dihydrobenzo[c][1,2]oxaborole-6-carbonyl)-L-valinate] | ≥ 7.70 | > 9.30
CNCc1cccc(COC(=O)[C@@H](NC(=O)c2ccc3c(c2C)B(O)OC3)C(C)C)c1 [Example 6-122, 3-((Methylamino)methyl)benzyl (1-hydroxy-7-methyl-1,3-dihydrobenzo[c][1,2]oxaborole-6-carbonyl)-L-valinate] | ≤ 6.00 | 5.30 to 8.00
Cc1c(C(=O)N[C@H](C(=O)O[C@H]2CCOC2)C(C)C)ccc2c1B(O)OC2 [Example 6-140, (S)-Tetrahydrofuran-3-yl (1-hydroxy-7-methyl-1,3-dihydrobenzo[c][1,2]oxaborole-6-carbonyl)-L-valinate] | 6.00 to 7.68 | 8.00 to 9.29
CC(C)[C@H](NC(=O)c1ccc2c(c1)B(O)OC2)C(=O)OCc1ccccc1 [Example 6-005, Benzyl (1-hydroxy-1,3-dihydrobenzo[c][1,2]oxaborole-6-carbonyl)-L-valinate] | 6.00 to 7.68 | 8.00 to 9.29
NC(=O)C[C@H](NC(=O)c1ccc2c(c1)B(O)OC2)C(=O)OCc1ccccc1 [Example 6-010, Benzyl (1-hydroxy-1,3-dihydrobenzo[c][1,2]oxaborole-6-carbonyl)-L-asparaginate] | ≤ 6.00 | 5.30 to 8.00
COCC(COC)OC(=O)[C@@H](NC(=O)c1ccc2c(c1C)B(O)OC2)C(C)C [Example 6-139, 1,3-Dimethoxypropan-2-yl (1-hydroxy-7-methyl-1,3-dihydrobenzo[c][1,2]oxaborole-6-carbonyl)-L-valinate] | 6.00 to 7.68 | 5.30 to 8.00
Cc1c(C(=O)N[C@H](C(=O)OCC2CCCO2)C(C)C)ccc2c1B(O)OC2 (stereo partly drawn) [Example 6-210, (tetrahydrofuran-2-yl)methyl (1-hydroxy-7-methyl-1,3-dihydrobenzo[c][1,2]oxaborole-6-carbonyl)-L-valinate] | ≥ 7.70 | > 9.30
Cc1c(C(=O)N[C@H](C(=O)OCC(C)C)C(C)C)ccc2c1B(O)OC2 [Example 6-116, Isobutyl (1-hydroxy-7-methyl-1,3-dihydrobenzo[c][1,2]oxaborole-6-carbonyl)-L-valinate] | ≥ 7.70 | –
CC(C)[C@H](NC(=O)c1ccc2c(c1)B(O)OC2)C(=O)OCc1ccc(F)c(F)c1 [Example 6-185, 3,4-difluorobenzyl (1-hydroxy-1,3-dihydrobenzo[c][1,2]oxaborole-6-carbonyl)-L-valinate] | 6.00 to 7.68 | –
Cc1c(C(=O)N[C@H](C(=O)OCc2cccc(N3CCNCC3)n2)C(C)C)ccc2c1B(O)OC2 [Example 6-213, (6-(piperazin-1-yl)pyridin-2-yl)methyl (1-hydroxy-7-methyl-1,3-dihydrobenzo[c][1,2]oxaborole-6-carbonyl)-L-valinate] | ≤ 6.00 | –
Cc1cc2c(cc1C(=O)N[C@H](C(=O)OCc1ccc(F)cc1)C(C)C)B(O)OC2 [Example 6-129, 4-Fluorobenzyl (1-hydroxy-5-methyl-1,3-dihydrobenzo[c][1,2]oxaborole-6-carbonyl)-L-valinate] | 6.00 to 7.68 | –
Cc1c(C(=O)N[C@H](C(=O)O[C@H](C)c2ccccc2)C(C)C)ccc2c1B(O)OC2 [Example 6-198, (R)-1-phenylethyl (1-hydroxy-7-methyl-1,3-dihydrobenzo[c][1,2]oxaborole-6-carbonyl)-L-valinate] | ≥ 7.70 | –
Cc1c(C(=O)N[C@H](C(=O)OC[C@@H]2CCOC2)C(C)C)ccc2c1B(O)OC2 [Example 6-234, ((R)-tetrahydrofuran-3-yl)methyl (1-hydroxy-7-methyl-1,3-dihydrobenzo[c][1,2]oxaborole-6-carbonyl)-L-valinate] | ≥ 7.70 | –
Cc1c(C(=O)N[C@H](C(=O)OCC2CCC(F)(F)CC2)C(C)(C)O)ccc2c1B(O)OC2 [Example 6-248, (4,4-difluorocyclohexyl)methyl (S)-3-hydroxy-2-(1-hydroxy-7-methyl-1,3-dihydrobenzo[c][1,2]oxaborole-6-carboxamido)-3-methylbutanoate] | 6.00 to 7.68 | –
Cc1c(C(=O)N[C@H](C(=O)OCc2ccc(C(=O)N(C)CCN(C)C)cc2)C(C)C)ccc2c1B(O)OC2 [Example 6-106, 4-((2-(Dimethylamino)ethyl)(methyl)carbamoyl)benzyl (1-hydroxy-7-methyl-1,3-dihydrobenzo[c][1,2]oxaborole-6-carbonyl)-L-valinate] | ≤ 6.00 | –
Cc1c(C(=O)N[C@H](C(=O)OCC2CCCC2)C(C)C)ccc2c1B(O)OC2 [Example 6-115, Cyclopentylmethyl (1-hydroxy-7-methyl-1,3-dihydrobenzo[c][1,2]oxaborole-6-carbonyl)-L-valinate] | ≥ 7.70 | –
Cc1c(C(=O)N[C@H](C(=O)OCc2ccccn2)C(C)C)ccc2c1B(O)OC2 [Example 6-191, Pyridin-2-ylmethyl (1-hydroxy-7-methyl-1,3-dihydrobenzo[c][1,2]oxaborole-6-carbonyl)-L-valinate] | ≥ 7.70 | –
Cc1c(C(=O)NC2(C(=O)OCc3ccc(F)cc3)CC2)ccc2c1B(O)OC2 [Example 6-068, 4-Fluorobenzyl 1-(1-hydroxy-7-methyl-1,3-dihydrobenzo[c][1,2]oxaborole-6-carboxamido)cyclopropane-1-carboxylate] | 6.00 to 7.68 | –
Cc1c(C(=O)N[C@H](C(=O)OC[C@H](O)CO)C(C)C)ccc2c1B(O)OC2 [Example 6-147, (R)-2,3-dihydroxypropyl (1-hydroxy-7-methyl-1,3-dihydrobenzo[c][1,2]oxaborole-6-carbonyl)-L-valinate] | ≤ 6.00 | –
Cc1c(C(=O)N[C@H](C(=O)OCc2cccnc2)C(C)C)ccc2c1B(O)OC2 [Example 6-187, Pyridin-3-ylmethyl (1-hydroxy-7-methyl-1,3-dihydrobenzo[c][1,2]oxaborole-6-carbonyl)-L-valinate] | ≥ 7.70 | –
Cc1c(C(=O)N[C@H](C(=O)OCC2(C)CCOC2)C(C)C)ccc2c1B(O)OC2 (stereo partly drawn) [Example 6-233, (3-methyltetrahydrofuran-3-yl)methyl (1-hydroxy-7-methyl-1,3-dihydrobenzo[c][1,2]oxaborole-6-carbonyl)-L-valinate] | ≥ 7.70 | –
Cc1c(C(=O)N[C@H](C(=O)OCc2ccc([S+]([O-])C(C)C)cc2)C(C)C)ccc2c1B(O)OC2 (stereo partly drawn) [Example 6-089, 4-(Isopropylsulfinyl)benzyl (1-hydroxy-7-methyl-1,3-dihydrobenzo[c][1,2]oxaborole-6-carbonyl)-L-valinate] | 6.00 to 7.68 | –
Cc1c(C(=O)N[C@H](C(=O)OCC2COCCO2)C(C)C)ccc2c1B(O)OC2 (stereo partly drawn) [Example 6-227, (1,4-dioxan-2-yl)methyl (1-hydroxy-7-methyl-1,3-dihydrobenzo[c][1,2]oxaborole-6-carbonyl)-L-valinate] | ≥ 7.70 | –
Cc1c(C(=O)N[C@H](C(=O)OCc2cncc(N3CCNCC3)n2)C(C)C)ccc2c1B(O)OC2 [Example 6-205, (6-(piperazin-1-yl)pyrazin-2-yl)methyl (1-hydroxy-7-methyl-1,3-dihydrobenzo[c][1,2]oxaborole-6-carbonyl)-L-valinate] | ≤ 6.00 | –
Cc1c(C(=O)N[C@H](C(=O)OCCN2CCN(C)CC2)C(C)C)ccc2c1B(O)OC2 [Example 6-096, 2-(4-Methylpiperazin-1-yl)ethyl (1-hydroxy-7-methyl-1,3-dihydrobenzo[c][1,2]oxaborole-6-carbonyl)-L-valinate] | ≤ 6.00 | –
Cc1c(C(=O)N[C@H](C(=O)O[C@@H](C)c2ccccc2)C(C)C)ccc2c1B(O)OC2 [Example 6-199, (S)-1-phenylethyl (1-hydroxy-7-methyl-1,3-dihydrobenzo[c][1,2]oxaborole-6-carbonyl)-L-valinate] | 6.00 to 7.68 | –
Cc1c(C(=O)N[C@H](C(=O)OCc2ccc3ncccc3c2)C(C)C)ccc2c1B(O)OC2 [Example 6-127, Quinolin-6-ylmethyl (1-hydroxy-7-methyl-1,3-dihydrobenzo[c][1,2]oxaborole-6-carbonyl)-L-valinate] | 6.00 to 7.68 | –
